Experimental data as given in PMC11719397, “Monophthalates of betulinic acid and related pentacyclic triterpenes inhibit efficiently the SOS-mediated nucleotide exchange and impact PI3K/AKT signaling in oncogenic K-RAS4B proteins” (RSC Advances, 2025).
≈ marks a conversion by molar mass, not a printed value. Where two headings read alike, the source gives them in different places.

Columns and labels:
K-RAS4B^G12D [1] = target: T1, K-RAS4B^G12D (Homo sapiens, UniProt P01116, G12D); test: biochemical; details: for IC50: K-RAS4B GDP/GTP exchange, eight data points, at least three determinations
K-RAS4B wild-type = K-RAS4B wild-type (Homo sapiens, UniProt P01116); test: Nucleotide exchange assay (SOS1-mediated GDP/GTP exchange, GDP-Glo), K-RAS4B wild-type; assay type: biochemical; details: K-RAS4B GDP/GTP exchange; eight data points, at least three determinations; (*) single determination
K-RAS4B G12V = K-RAS4B G12V (Homo sapiens, UniProt P01116, G12V); test: Nucleotide exchange assay (SOS1-mediated GDP/GTP exchange, GDP-Glo), K-RAS4B G12V; assay type: biochemical; details: eight data points, at least three determinations, (*) single determination
[2] = target: (GTP)K-RAS4B^wt:SOS1 complex (Homo sapiens, UniProt P01116+Q07889); test: HTRF K-RAS^wt:SOS protein-protein interaction assay
Procedure: The interaction of (GTP)K-RAS4B^wt and SOS was measured with a HTRF assay using an SOS-specific antibody labeled with terbium cryptate as HTRF (homogeneous time-resolved fluorescence) donor and a K-RAS4B^wt specific antibody labeled with an HTRF acceptor (XL665).[52]
To test the compounds effect on the interaction of K-RAS and SOS1 proteins a commercial assay from Revvity (product code 64[sequence]) was used. The K-RAS WT/SOS1 PPI assay includes tagged human recombinant partners (K-RAS WT and SOS1) and labelled anti-tag reagents for HTRF detection. Without an inhibitor, K-RAS WT loaded with GTP binds to SOS1, and the binding of each detection reagent to its tagged target generates an HTRF signal. In the presence of K-RAS WT/SOS1 inhibitors or GTP competitors, the HTRF signal decreases.
After an incubation step for 10 min at room temperature 3 μL Tag1-KRAS protein was added followed by 7.5 μL detection mix containing anti-Tag2 antibody labeled with Terbium cryptate and anti-Tag1 antibody labeled with XL665. […] IC50 values were determined from the sigmoidal dose response curves with the Scigilian Analyze software (Scigilian, Monteral, Canada).

K-RAS4B^G12D [3] = target: T1, K-RAS4B^G12D; test: cell-based; set-up: a fusion protein of LgBiT and full-length RAS; a fusion protein of SmBiT(q) and full-length RAS in cells; expressed in transfected cells; host or cells: HEK239T (so in the source); details: live cells; displacement of BI2852 from the K-Ras4B SI/II binding-site; read-out: K-RAS4B^G12D NanoBRET TE KD
Text: To obtain further information on the mode of action, selected GDP/GTP exchange inhibitors were studied in additional assays (Table 3). A target engagement assay, which is based on bioluminescence resonance energy transfer (BRET), was used to measure target engagement at protein complexes in live cells (Fig. 5a). The BRET effect results from an energy transfer between the target luciferase fusion protein and a cell-permeable fluorescent tracer in intact cells.
Fig. 5 Schematic illustrations of the RAS cellular target engagement and RAS:SOS protein–protein interaction assay. (a) NanoBRET target engagement (TE) assay: when the fusion proteins LgBiT-RAS and SmBiT(q)-RAS interact in live-cells, they form an active luciferase as a BRET donor. The BRET receptor is a fluorescent NanoBRET® tracer that binds specifically to K-RAS. K-RAS binders displace the tracer and reduce the BRET signal in a dose-dependent manner.
The NanoBRET® TE Intracellular RAS Assay uses NanoBiT® Technology, a structural complementation system comprised of a large luciferase subunit (LgBiT) and a small complementary peptide (SmBiT(q)). Specifically, a fusion protein of LgBiT and full-length RAS is co-expressed with a fusion protein of SmBiT(q) and full-length RAS in cells. When the RAS proteins interact and form multimers, the LgBiT and SmBiT(q) subunits come together to form an active luciferase enzyme that serves as the BRET donor. The energy acceptor is a cell-permeable fluorescent NanoBRET® tracer that binds specifically to RAS. […] After mixing the plate for 1 min and incubation at room temperature for 15 min 1 μL of NanoBRET TE RAS Tracer 01 (final concentration 1 μM) was added followed by another mixing step. After 2 h incubation (37 °C, 5% CO2) and 15 min at room temperature 5 μL of NanoBRET™ Nano-Glo® substrate was added followed by a mixing step.

[4] = K-RAS4B form mostly not given, inactive = IC50 > 100 μM (Fig. 3 legend)

SMILES	IC50 (K-RAS4B^G12D [1]) [µM]	inhibition of GDP/GTP exchange (in words) (K-RAS4B^G12D [1]; [4])	solubility (Solubility) [µM]	IC50 (K-RAS4B wild-type) [µM]	IC50 (K-RAS4B G12V) [µM]	also measured
C=C(C)[C@@H]1CC[C@]2(C(=O)O)CC[C@]3(C)[C@H](CC[C@@H]4[C@@]5(C)CC[C@H](O)C(C)(C)[C@@H]5CC[C@]43C)[C@@H]12 [Compound 2, betulinic acid]	> 300	–	–	–	–	–
C[C@H]1[C@H](C)CC[C@]2(C(=O)O)CC[C@]3(C)C(=CC[C@@H]4[C@@]5(C)CC[C@H](O)C(C)(C)[C@@H]5CC[C@]43C)[C@H]12 [Compound 4, Ursolic acid]	> 300	–	–	–	–	–
C=C(C)[C@@H]1CC[C@]2(C(=O)O)CC[C@]3(C)[C@H](CC[C@@H]4[C@@]5(C)CC[C@H](OC(C)=O)C(C)(C)[C@@H]5CC[C@]43C)[C@@H]12 [Compound 8]	–	inactive	–	–	–	–
C=C(C)[C@@H]1CC[C@]2(C(=O)O)CC[C@]3(C)[C@H](CC[C@@H]4[C@@]5(C)CC[C@H](OC(=O)c6ccccc6)C(C)(C)[C@@H]5CC[C@]43C)[C@@H]12 [Compound 9]	–	inactive	–	–	–	–
C=C(C)[C@@H]1CC[C@]2(C(=O)OC)CC[C@]3(C)[C@H](CC[C@@H]4[C@@]5(C)CC[C@H](O)C(C)(C)[C@@H]5CC[C@]43C)[C@@H]12 [Compound 10]	–	inactive	–	–	–	–
C=C(C)[C@@H]1CC[C@]2(C(=O)NCC(=O)O)CC[C@]3(C)[C@H](CC[C@@H]4[C@@]5(C)CC[C@H](O)C(C)(C)[C@@H]5CC[C@]43C)[C@@H]12 [Compound 12]	–	inactive	–	–	–	–
C=C(C)[C@@H]1CC[C@]2(C(=O)On3nnc4cccnc43)CC[C@]3(C)[C@H](CC[C@@H]4[C@@]5(C)CC[C@H](O)C(C)(C)[C@@H]5CC[C@]43C)[C@@H]12 [Compound 13]	–	inactive	–	–	–	–
CC(C=O)[C@@H]1CC[C@]2(C(=O)O)CC[C@]3(C)[C@H](CC[C@@H]4[C@@]5(C)CC[C@H](OC(=O)c6ccccc6C(=O)O)C(C)(C)[C@@H]5CC[C@]43C)[C@@H]12 (some centres unmarked) [Compound 14]	48.5 ± 12.7	–	447 (≈ 278 µg/mL)	37.3 ± 19.1	51.1 ± 6.2	solubility (in words) (Solubility): well soluble
C=C(C)[C@@H]1CC[C@]2(C(=O)NCCN)CC[C@]3(C)[C@H](CC[C@@H]4[C@@]5(C)CC[C@H](O)C(C)(C)[C@@H]5CC[C@]43C)[C@@H]12 [Compound 17]	–	inactive	–	–	–	–
C=C(C)[C@@H]1CC[C@]2(C(=O)O)CC[C@]3(C)[C@H](CC[C@@H]4[C@@]5(C)CCC(=O)C(C)(C)[C@@H]5CC[C@]43C)[C@@H]12 [Compound 20, betulonic acid]	–	inactive	–	–	–	–
C=C(C)[C@@H]1CC[C@]2(C(=O)NCC(=O)OCC)CC[C@]3(C)[C@H](CC[C@@H]4[C@@]5(C)CC[C@H](O)C(C)(C)[C@@H]5CC[C@]43C)[C@@H]12 [Compound 21]	–	–	–	–	–	inhibition of GDP/GTP exchange (in words) (K-RAS4B^G12D [1]): inactive
C=C(C)[C@@H]1CC[C@]2(C(=O)O)CC[C@]3(C)[C@H](CC[C@@H]4[C@@]5(C)CC[C@H](OC(=O)c6cc7ccccc7cc6C(=O)O)C(C)(C)[C@@H]5CC[C@]43C)[C@@H]12 [Compound 22]	–	–	–	–	–	inhibition of GDP/GTP exchange (in words) (K-RAS4B^G12D [1]): loss of GDP/GTP exchange inhibition
COC(=O)[C@]12CC[C@@H](C(C)C(=O)O)[C@@H]1[C@H]1CC[C@@H]3[C@@]4(C)CC[C@H](OC(C)=O)C(C)(C)[C@@H]4CC[C@@]3(C)[C@]1(C)CC2 (some centres unmarked) [Compound 27]	13.8 ± 4.2	–	–	–	–	–
C=C(C)[C@@H]1CC[C@]2(COC(=O)CCC(=O)O)CC[C@]3(C)[C@H](CC[C@@H]4[C@@]5(C)CC[C@H](O)C(C)(C)[C@@H]5CC[C@]43C)[C@@H]12 [Compound 31]	10.4 ± 0.8	–	–	25.6 ± 4.3	12.7 ± 5.5	–
C=C(C)[C@@H]1CC[C@]2(COC(=O)CCC(=O)O)CC[C@]3(C)[C@H](CC[C@@H]4[C@@]5(C)CC[C@H](OC(=O)c6c(F)ccc(F)c6C(=O)O)C(C)(C)[C@@H]5CC[C@]43C)[C@@H]12 [Compound 33]	1.45 ± 0.93	–	416 (≈ 302 µg/mL)	2.09 ± 0.59	2.13 ± 0.87	Kd [2]: 37.4 µM; Kd (K-RAS4B^G12D [3]): 26.4 µM
C=C(C)[C@@H]1CC[C@]2(CN)CC[C@]3(C)[C@H](CC[C@@H]4[C@@]5(C)CC[C@H](O)C(C)(C)[C@@H]5CC[C@]43C)[C@@H]12 [Compound 35]	–	–	–	–	–	inhibition of GDP/GTP exchange (in words) (K-RAS4B^G12D [1]): inactive
COc1cc(C(=O)O)c(C(=O)O[C@H]2CC[C@]3(C)[C@H]4CC=C5[C@@H]6[C@@H](C)[C@H](C)CC[C@]6(C(=O)O)CC[C@@]5(C)[C@]4(C)CC[C@H]3C2(C)C)cc1OC [Compound 38]	55.6 ± 6.5	–	383 (≈ 255 µg/mL)	53.6 ± 7.3	–	–
CC1(C)CC[C@]2(C(=O)Nc3nnn[nH]3)CC[C@]3(C)C(=CC[C@@H]4[C@@]5(C)CC[C@H](O)C(C)(C)[C@@H]5CC[C@]43C)[C@@H]2C1 [Compound 39]	27.8 ± 2.6	–	–	12.8 ± 2.9	9.18 ± 0.99	–
CC1(C)CC[C@]2(C(=O)NCCN)CC[C@]3(C)C(=CC[C@@H]4[C@@]5(C)CC[C@H](O)C(C)(C)[C@@H]5CC[C@]43C)[C@@H]2C1 [Compound 40]	–	inactive	–	–	–	–
CC1(C)CC[C@]2(C(=O)NO)CC[C@]3(C)C(=CC[C@@H]4[C@@]5(C)CC[C@H](OC(=O)c6cc(F)c(F)cc6C(=O)O)C(C)(C)[C@@H]5CC[C@]43C)[C@@H]2C1 [Compound 41]	7.61 ± 0.7	–	–	4.68	5.47	–
CC1(C)CC[C@]2(C(=O)O)CC[C@]3(C)C(=CC[C@@H]4[C@@]5(C)CC[C@H](OC(=O)c6cc(F)c(F)cc6C(=O)NO)C(C)(C)[C@@H]5CC[C@]43C)[C@@H]2C1 [Compound 42, oleanoyl 4,5-difluoro-2-(hydroxycarbamoyl)benzo-ate]	–	completely inactive	–	–	–	–
CC1(C)CC[C@]2(C(=O)O)CC[C@]3(C)C(=CC[C@@H]4[C@@]5(C)CC[C@H](OC(=O)c6cc(F)c(F)cc6C(=O)O)C(C)(C)[C@@H]5CC[C@]43C)[C@@H]2C1 [Compound 43]	2.22 ± 0.29	–	394 (≈ 252 µg/mL)	1.5 ± 0.08	2.71 ± 0.39	–
CC1(C)CC[C@]2(C(=O)O)CC[C@]3(C)C(=CC[C@@H]4[C@@]5(C)CC[C@H](OC(=O)c6c(F)ccc(F)c6C(=O)O)C(C)(C)[C@@H]5CC[C@]43C)[C@@H]2C1 [Compound 44]	2.88 ± 0.89	–	424 (≈ 272 µg/mL)	1.33 ± 0.24	2.51 ± 0.24	–
CC1(C)CC[C@]2(C(=O)O)CC[C@]3(C)C(=CC[C@@H]4[C@@]5(C)CC[C@H](OC(=O)c6sccc6C(=O)O)C(C)(C)[C@@H]5CC[C@]43C)[C@@H]2C1 [Compound 45]	3.06 ± 0.79	–	390 (≈ 238 µg/mL)	1.52 ± 0.5	5.62 ± 0.93	–
CC1(C)CC[C@]2(C(=O)O)CC[C@]3(C)C(=CC[C@@H]4[C@@]5(C)CC[C@H](OC(=O)c6ccsc6C(=O)O)C(C)(C)[C@@H]5CC[C@]43C)[C@@H]2C1 [Compound 46]	3.67 ± 0.35	–	421 (≈ 257 µg/mL)	4.15 ± 1.32	8.12 ± 1.24	–
COC(=O)c1ccccc1C(=O)O[C@H]1CC[C@]2(C)[C@H]3CC=C4[C@@H]5CC(C)(C)CC[C@]5(C(=O)O)CC[C@@]4(C)[C@]3(C)CC[C@H]2C1(C)C [Compound 48]	–	completely inactive	–	–	–	–
CC1(C)CCC23CCC4(C)C5(C)CCC6C(C)(C)C(OC(=O)c7cc(F)c(F)cc7C(=O)O)CCC6(C)C5CC(O)C4(OC2=O)C3C1 (centres unmarked) [Compound 51]	26.5 ± 5.9	–	99 (≈ 65 µg/mL)	7.18 ± 0.68	8.57 ± 1.09	–
CC1(C)CCC23CCC4(C)C5(C)CCC6C(C)(C)C(OC(=O)c7c(F)ccc(F)c7C(=O)O)CCC6(C)C5CC(O)C4(OC2=O)C3C1 (centres unmarked) [Compound 52]	27.1 ± 4.2	–	320 (≈ 210 µg/mL)	10.6 ± 2.9	8.7 ± 0.59	–
C#Cc1c(F)ccc2cc(O)cc(-c3ncc4c(N5CC6CCC(C5)N6)nc(OC[C@@]56CCCN5C[C@H](F)C6)nc4c3F)c12 [Compound 53, MRTX1133, reference compound]	–	–	322 (≈ 193 µg/mL)	–	–	–
Cn1cnc(Cn2ccc3ccc(CNCc4[nH]c5ccccc5c4C4NC(=O)c5ccc(O)cc54)cc32)c1 (centres unmarked) [Compound 54, BI2852, reference compound]	13.7 ± 5.1	–	114 (≈ 58.9 µg/mL)	13.4 ± 2.1	10.9 ± 0.6	–
